Results as given in the OPERA property sets (Mansouri et al. 2018).

| SMILES | logP |
| --- | --- |
| Cc1ncc(CO)c(C=NNC(=O)c2ccc([N+](=O)[O-])cc2)c1O | 1.55 |
| O=C(NN=Cc1ccccc1O)c1ccc(O)cc1 | 2.56 |
| O=C(NN=Cc1c(O)ccc2ccccc12)c1cccc(F)c1 | 4.06 |
| Cc1ncc(CO)c(C=NNC(=O)c2ccc(N)cc2)c1O | 1.19 |
| O=C(NN=Cc1ccccc1O)c1cccc(F)c1 | 3.41 |
| Oc1ccccc1C=NNc1ccccn1 | 3.24 |
| CC(=O)NN=Cc1c(CO)cnc(C)c1O | 0.65 |
| Cc1ncc(CO)c(C=NNC(=O)c2ccc(O)cc2)c1O | 1.89 |
| Cc1ccc(C(=O)NN=Cc2ccccc2O)cc1 | 3.39 |
| Cc1ncc(CO)c(C=NNc2ccccn2)c1O | 2.46 |
| O=C(NN=Cc1ccccc1O)c1cccc(Cl)c1 | 3.83 |
| Cc1ncc(CO)c(C=NNC(=O)c2cccc(Cl)c2)c1O | 2.96 |
| O=C(NN=Cc1c(O)ccc2ccccc12)c1ccc(O)cc1 | 3.95 |
| Nc1ccc(C(=O)NN=Cc2ccccc2O)cc1 | 2.16 |
| O=C(NN=Cc1c(O)ccc2ccccc12)c1ccco1 | 3.41 |
| Cc1ccc(C(=O)NN=Cc2c(CO)cnc(C)c2O)cc1 | 2.54 |
| O=C(NN=Cc1ccccc1O)c1ccncc1 | 2.16 |
| O=C(NN=Cc1ccccc1O)c1ccco1 | 2.67 |
| O=C(NN=Cc1c(O)ccc2ccccc12)c1ccc([N+](=O)[O-])cc1 | 3.58 |
| Cc1ncc(CO)c(C=NNC(=O)c2cccc(F)c2)c1O | 2.42 |
| Cc1ncc(CO)c(C=NNC(=O)c2ccc(C(C)(C)C)cc2)c1O | 3.73 |
| COc1ccc(C(=O)NN=Cc2c(CO)cnc(C)c2O)cc1 | 2.47 |
| O=C(NN=Cc1ccccc1O)c1cccc(Br)c1 | 3.91 |
| CC(=O)NN=Cc1c(O)ccc2ccccc12 | 2.91 |
| Cc1ncc(CO)c(C=NNC(=O)c2cccc(Br)c2)c1O | 3.07 |
| Cc1ncc(CO)c(C=NNC(=O)c2ccco2)c1O | 1.39 |

More lines, now with the values ahead:

| logP | SMILES |
| --- | --- |
| 1.14 | Cc1ncc(CO)c(C=NNC(=O)c2ccncc2)c1O |
| 2.23 | Cc1ncc(CO)c(C=NNC(=O)c2ccccc2)c1O |
| 3.03 | O=C(NN=Cc1ccccc1O)c1ccc([N+](=O)[O-])cc1 |
| 4.73 | CC(C)(C)c1ccc(C(=O)NN=Cc2ccccc2O)cc1 |
| 1.71 | CC(=O)NN=Cc1ccccc1O |
| 3.03 | O=C(NN=Cc1ccccc1O)c1cccs1 |
| 3.01 | O=C(NN=Cc1ccccc1O)c1ccccc1 |
| 3.04 | Nc1ccc(C(=O)NN=Cc2c(O)ccc3ccccc23)cc1 |
| 2.11 | Cc1ncc(CO)c(C=NNC(=O)c2cccs2)c1O |
| 4.06 | COc1ccc(C(=O)NN=Cc2c(O)ccc3ccccc23)cc1 |
| 3.34 | COc1ccc(C(=O)NN=Cc2ccccc2O)cc1 |
